pIC50: −log10 of the molar value.
The compounds below were run on Trypanosoma cruzi (assay: Percentage delyse against amastigote forms of Y strain of Trypanosoma cruzi at 32 uM).
Format: functional
With `O=C1OC[C@H](Cc2ccc3c(c2)OCO3)[C@@H]1Cc1ccc2c(c1)OCO2` the Delyse was 63.6%. `O=C(Cn1ccnc1[N+](=O)[O-])NCc1ccccc1` [BENZNIDAZOLE] gave a Delyse of 68%. Compound `O=C1OC[C@H](Cc2cc3c(cc2[N+](=O)[O-])OCO3)[C@@H]1Cc1cc2c(cc1[N+](=O)[O-])OCO2` has a Delyse of 48.5%. Compound `CC(=O)OC1OC[C@H](Cc2ccc3c(c2)OCO3)[C@@H]1Cc1ccc2c(c1)OCO2` (stereo not given in full) has a Delyse of 26.4%. Compound `c1ccc(COC2OC[C@H](Cc3ccc4c(c3)OCO4)[C@@H]2Cc2ccc3c(c2)OCO3)cc1` (stereo not given in full) has a Delyse of 68.8%. `CN(C)CCOC1OC[C@H](Cc2ccc3c(c2)OCO3)[C@@H]1Cc1ccc2c(c1)OCO2` (stereo not given in full) showed a Delyse of 57.8%.

The compounds below were run on Trypanosoma cruzi (assay: Percentage delyse against amastigote forms of Y strain of Trypanosoma cruzi at 2 uM).
Format: functional
In the case of `O=C1OC[C@H](Cc2ccc3c(c2)OCO3)[C@@H]1Cc1ccc2c(c1)OCO2`, the Delyse was 57%. For `O=C(Cn1ccnc1[N+](=O)[O-])NCc1ccccc1` [BENZNIDAZOLE], the Delyse was 67%. Compound `O=C1OC[C@H](Cc2cc3c(cc2[N+](=O)[O-])OCO3)[C@@H]1Cc1cc2c(cc1[N+](=O)[O-])OCO2` has a Delyse of 48.7%. Compound `CC(=O)OC1OC[C@H](Cc2ccc3c(c2)OCO3)[C@@H]1Cc1ccc2c(c1)OCO2` (stereo not given in full) has a Delyse of 26%. Compound `c1ccc(COC2OC[C@H](Cc3ccc4c(c3)OCO4)[C@@H]2Cc2ccc3c(c2)OCO3)cc1` (stereo not given in full) has a Delyse of 38%. Compound `CN(C)CCOC1OC[C@H](Cc2ccc3c(c2)OCO3)[C@@H]1Cc1ccc2c(c1)OCO2` (stereo not given in full) has a Delyse of 55.4%.

These compounds were tested on Trypanosoma cruzi (assay: Percentage delyse against amastigote forms of Y strain of Trypanosoma cruzi at 0.5 uM).
Format: functional
Compound `O=C1OC[C@H](Cc2ccc3c(c2)OCO3)[C@@H]1Cc1ccc2c(c1)OCO2` has a Delyse of 47.6%. Compound `O=C(Cn1ccnc1[N+](=O)[O-])NCc1ccccc1` [BENZNIDAZOLE] has a Delyse of 38.4%. `O=C1OC[C@H](Cc2cc3c(cc2[N+](=O)[O-])OCO3)[C@@H]1Cc1cc2c(cc1[N+](=O)[O-])OCO2` gave a Delyse of 34.6%. `CC(=O)OC1OC[C@H](Cc2ccc3c(c2)OCO3)[C@@H]1Cc1ccc2c(c1)OCO2` (stereo not given in full) showed a Delyse of 14.5%. `c1ccc(COC2OC[C@H](Cc3ccc4c(c3)OCO4)[C@@H]2Cc2ccc3c(c2)OCO3)cc1` (stereo not given in full) was tested, and the Delyse was 37%. For `CN(C)CCOC1OC[C@H](Cc2ccc3c(c2)OCO3)[C@@H]1Cc1ccc2c(c1)OCO2` (stereo not given in full), the Delyse was 33.6%.

The compounds below were run on Trypanosoma cruzi (assay: Trypanocidal activity against amastigote forms of Y strain of Trypanosoma cruzi).
Format: functional, organism-based
`O=C1OC[C@H](Cc2ccc3c(c2)OCO3)[C@@H]1Cc1ccc2c(c1)OCO2` was tested, and the pIC50 was 6.15. Work on `O=C(Cn1ccnc1[N+](=O)[O-])NCc1ccccc1` [BENZNIDAZOLE] yielded a pIC50 of 6.10. With `O=C1OC[C@H](Cc2cc3c(cc2[N+](=O)[O-])OCO3)[C@@H]1Cc1cc2c(cc1[N+](=O)[O-])OCO2` the pIC50 was 4.02. `CC(=O)OC1OC[C@H](Cc2ccc3c(c2)OCO3)[C@@H]1Cc1ccc2c(c1)OCO2` (stereo not given in full) gave a pIC50 of ~1.82. `c1ccc(COC2OC[C@H](Cc3ccc4c(c3)OCO4)[C@@H]2Cc2ccc3c(c2)OCO3)cc1` (stereo not given in full) was tested, and the pIC50 was 5.24. In the case of `CN(C)CCOC1OC[C@H](Cc2ccc3c(c2)OCO3)[C@@H]1Cc1ccc2c(c1)OCO2` (stereo not given in full), the pIC50 was 5.33.

These compounds were tested on Trypanosoma cruzi (assay: Percentage delyse against amastigote forms of Y strain of Trypanosoma cruzi at 8 uM).
Format: functional
`O=C1OC[C@H](Cc2ccc3c(c2)OCO3)[C@@H]1Cc1ccc2c(c1)OCO2` was tested, and the Delyse was 57.6%. Work on `O=C(Cn1ccnc1[N+](=O)[O-])NCc1ccccc1` [BENZNIDAZOLE] yielded a Delyse of 69%. Work on `O=C1OC[C@H](Cc2cc3c(cc2[N+](=O)[O-])OCO3)[C@@H]1Cc1cc2c(cc1[N+](=O)[O-])OCO2` yielded a Delyse of 38.9%. `CC(=O)OC1OC[C@H](Cc2ccc3c(c2)OCO3)[C@@H]1Cc1ccc2c(c1)OCO2` (stereo not given in full) showed a Delyse of 29%. `c1ccc(COC2OC[C@H](Cc3ccc4c(c3)OCO4)[C@@H]2Cc2ccc3c(c2)OCO3)cc1` (stereo not given in full) showed a Delyse of 46.8%. Work on `CN(C)CCOC1OC[C@H](Cc2ccc3c(c2)OCO3)[C@@H]1Cc1ccc2c(c1)OCO2` (stereo not given in full) yielded a Delyse of 50.8%.

— ChEMBL document CHEMBL1142828, “Trypanocidal activity of (-)-cubebin derivatives against free amastigote forms of Trypanosoma cruzi” (Bioorg Med Chem Lett, 2005)
